This is an account of results in patent US10626094B2 (La Jolla Institute of Allergy & Immunology, priority 2014, dated 2020).

The target in series [1] is LMPTP-A (Low Molecular Weight Protein Tyrosine Phosphatase-A) enzyme (Homo sapiens (Human), UniProt P24666). As to the kind of experiment: LMPTP primary screening / LMPTP (OMFP) enzyme inhibition assay, fluorescence intensity. Format: biochemical. In outline: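 Single-concentration screen, test compounds 20 μM final, […]. Enzyme (0.625 nM) and OMFP (400 μM) react 50 min at room temp, dark, in Bis-Tris buffer pH 6.0 containing DTT 1 mM and Triton X-100 0.01%. Read-out: fluorescence intensity.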
LMPTP-A (Low Molecular Weight Protein Tyrosine Phosphatase-A) enzyme, sequence (P24666 whole entry): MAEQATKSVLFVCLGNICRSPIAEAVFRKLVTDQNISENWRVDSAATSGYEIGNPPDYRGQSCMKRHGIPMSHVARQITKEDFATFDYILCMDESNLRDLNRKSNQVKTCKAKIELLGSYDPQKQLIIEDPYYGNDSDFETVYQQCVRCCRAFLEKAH

Series [2] addresses recombinant human LMPTP-A (Homo sapiens (Human), UniProt P24666). Put plainly: isothermal calorimetry (ITC) binding. Here is the method: ML400 analog G53 (Table A) binds to LMPTP. ITC was performed using recombinant human LMPTP-A and a derivative of Compound D1, G53. Kd=0.9 microM.
Background: ITC needs no label: the signal is the heat of the interaction.

Series [3] in a line: plasma stability, human plasma. The format is in vitro ADME. To be noted: Human plasma, 3 hrs. An excerpt: (§1) Plasma stability is a measure of the stability of small molecules and peptides in plasma and is an important parameter, which can strongly influence the in vivo efficacy of a test compound. Drug candidates are exposed to enzymatic processes (proteinases. esterases) in plasma, and they can undergo intramolecular rearrangement or bind irreversibly (covalently) to proteins.

Series [4] in a line: plasma stability, mouse plasma. Format: in vitro ADME. To be noted: Mouse plasma, 3 hrs.
Source text: as §1

For series [5], the system named is insulin receptor in HepG2 cells. To be noted: 10 microM compound overnight, insulin 5 min.
Series [6] can be described thus: hepatic microsomal stability, mouse liver microsomes. Format: in vitro ADME. The following applies: Mouse microsomes, 1 hr. An excerpt:
(§2) In the course of this investigation many compounds with similar potencies in the LMPTP (OMFP) assay were found. In order to determine which compound would be the best candidate for in vivo studies, an abbreviated ADME panel was ran on these compounds, a tabulation of the most interesting data on this set of compounds is illustrated in Table 3 below. From the hepatic microsome stability data the candidate selected for in vivo studies was Compound D1.
(§3) The microsomal stability assay is commonly used to rank compounds according to their metabolic stability. This assay addresses the pharmacologic question of how long the parent compound will remain circulating in plasma within the body.
In general terms: Liver microsomes are vesicles of endoplasmic reticulum, rich in cytochrome P450 enzymes.

The nature of series [7]: aqueous solubility (buffer pH 5.0-7.4, PBS). The format is physicochemical.
Series [8] is described as follows: hepatic microsomal stability, human liver microsomes. Format: in vitro ADME. The following applies: Human microsomes, 1 hr.
Source text: as §2, §3

Where [9] appears, read: LMPTP-A, OMFP substrate, method of Example 2, read-out: IC50.

Where two headings read alike, the source gives them in different places. A value given as a limit tells only on which side of the number the result lay.

recombinant human LMPTP-A, sequence (P24666 whole entry): as above

With `COc1ccc(-c2cc(Nc3cccc(CC4CCNCC4)c3)c3ccccc3n2)cc1` [Compound G53, [2-(4-methoxyphenyl)(4-quinolyl)][3-(4-piperidylmethyl)phenyl]amine], in series [1] (setting [9]), the IC50 was 0.801 to 5 µM. For the same molecule, in series [2], the Kd came to 900 nM.
Consider `c1ccc(-c2cc(NCCN3CCCCC3)c3ccccc3n2)cc1` [Entry 41], for which the “Plasma Stability % Remaining @ 3 hrs” value amounted to 70.08% in series [3] and 62.25% in series [4]. Besides, the IC50 in series [1] (Table 2 quinoline series, CP sample (cherry pick of DMSO solution from NIH MLSMR), read-out: LMPTP (OMFP) (IC50)) worked out at 3.49 µM; in series [1] (Table 2 quinoline series, P sample (purchased from commercial sources), read-out: LMPTP (OMFP) (IC50)) it was 2.86 µM; in series [1] (Table 2 quinoline series, S sample (synthesized de novo), read-out: LMPTP (OMFP) (IC50)) it was 3.7 µM; in series [1] (initial screening hits (Scheme 4), read-out: IC50), 3.49 µM; in series [1] (purchased compound, read-out: LMPTP (OMFP) IC50), 2.86 µM; in series [1] (synthesized compound, read-out: LMPTP (OMFP) IC50), 3.7 µM. Moreover, the “phosphorylation of the insulin receptor” value in series [5] is “increases phosphorylation of the insulin receptor”. The “Hepatic Microsome Stability % Remaining @ 1 hr” value in series [6] worked out at 0.38%; in series [8] it was 26.54%. Moreover, the results for the “Aqueous Solubility Pion's buffer” value in series [7] (pH 5.0), in series [7] (pH 6.2) and in series [7] (pH 7.4) were 111.8 µg/mL, 95.7 µg/mL and 54.5 µg/mL, respectively.
For “(3-piperidylpropyl)(2-(3-pyridyl)(4-quinolyl))amine [Compound I147]”, in series [1] (setting [9]), the IC50 lay within 0.801 to 5 µM.
Same read-out and setting: for “(3-piperidylpropyl)[2-(3,4,5-trifluorophenyl)(4-quinolyl)]amine [Compound I127]” the value was 0.801 to 5 µM; for “N-cyclopropyl(4-{4-[(3-piperidylpropyl)amino](2-quinolyl)}phenyl)carboxamide [Compound I70]”, 0.801 to 5 µM; for “N-ethyl-N-methyl(4-{4-[(3-piperidylpropyl)amino](2-quinolyl)}phenyl)carboxamide [Compound I60]”, 0.801 to 5 µM.
Still for that read-out and setting: for “[2-(2,4-dichlorophenyl)(4-quinolyl)](3-piperidylpropyl)amine [Compound I103]” the value was 0.801 to 5 µM; for “[2-(2,6-dichlorophenyl)(4-quinolyl)](3-piperidylpropyl)amine [Compound I100]”, over 5 µM.
For “[2-(3,4-dichlorophenyl)(4-quinolyl)](3-piperidylpropyl)amine [Compound I138]”, in series [1] (setting [9]), the IC50 is 0.801 to 5 µM.
On the same count and under the same terms, for “[2-(3,5-dichlorophenyl)(4-quinolyl)](3-piperidylpropyl)amine [Compound I170]” the value was 0.801 to 5 µM.
The same measure, in the same setting: the value for “[2-(3-chloro-2-prop-2-enyloxy(4-pyridyl))(4-quinolyl)](3-piperidylpropyl)amine [Compound I91]” was over 5 µM; that for “[2-(4-methoxyphenyl)(4-5,6,7,8-tetrahydroquinolyl)][4-(piperidylmethyl)phenyl]amine [Compound I207]” was 0.801 to 5 µM; that for “[2-(5-bromo-2-methoxy(4-pyridyl))(4-quinolyl)](3-piperidylpropyl)amine [Compound I89]” was 0.801 to 5 µM.
As for “[2-(5-bromo-3-chloro-2-fluorophenyl)(4-quinolyl)](3-piperidylpropyl)amine [Compound I239]”, the IC50 in series [1] (setting [9]) lay within 0.801 to 5 µM.
On the same count and under the same terms, for “methyl 3-{4-[(3-piperidylpropyl)amino]-2-quinolyl}benzoate [Compound I155]” the value was 0.801 to 5 µM; for “{2-[2,4-bis(trifluoromethyl)phenyl](4-quinolyl)}(3-piperidylpropyl)amine [Compound I168]”, 0.2 to 0.8 µM.
On the same count and under the same terms, for “{2-[3-chloro-2-(phenylmethoxy)(4-pyridyl)](4-quinolyl)}(3-piperidylpropyl)amine [Compound I88]” the value was 0.801 to 5 µM.
Still for that read-out and setting: the value for “{2-[5-chloro-2-(cyclopropylmethoxy)(3-pyridyl)](4-quinolyl)}(3-piperidylpropyl)amine [Compound I95]” was 0.801 to 5 µM.

A word on the IC50: it is the concentration needed to halve the response being measured. As a reminder, the Kd is a measure of binding affinity in units of concentration.
